# Reference: patent publication US20040102454A1, “Phenylahistin and the phenylahistin analogs, a new class of anti-tumor compounds” (priority 1998, published 2004)
# Where “and” joins values, the source holds several entries; their conditions need not be identical. Identical values can stand only once. Like-named read-outs stand apart in the source and are kept apart here.
# Assays:
# [1] = test system: MES-SA DX (Taxol Resistant) human uterine sarcoma tumor cell line; assay: Drug resistant cell line pair, cytotoxicity; type: cell-based
# Source text: MES-SA (Taxol Sensitive) and MES-SA DX (Taxol Resistant). This cell line expresses elevated mdr-1 mRNA and P-glycoprotein (an extrusion pump mechanism). Pretreatment with cyclosporin-A (CsA) blocks P-glycoprotein and reinstates activity in the resistant cell line for those compounds for which the resistance is due to elevated P-glycoprotein.
# [2] = test system: HL-60 (Mitoxantrone-Sensitive) human acute promyelocytic leukemia cell line; assay: Drug resistant cell line pair, cytotoxicity; type: cell-based; details: Homo sapiens; HL-60 Sensitive
# Source text: 2) Human Acute Promyelocytic Leukemia Cell Line Pair: HL-60 (Mitoxantrone-Sensitive) and HL-60/MX-2 (Mitoxantrone-Resistant)
# This cell line is considered to have atypical drug resistance properties with altered topoisomerase II catalytic activity without overexpression of P-glycoprotein.
# [3] = test system: HL-60/MX-2 (Mitoxantrone-Resistant) human acute promyelocytic leukemia cell line; assay: Drug resistant cell line pair, cytotoxicity; type: cell-based
# Source text: HL-60 (Mitoxantrone-Sensitive) and HL-60/MX-2 (Mitoxantrone-Resistant) This cell line is considered to have atypical drug resistance properties with altered topoisomerase II catalytic activity without overexpression of P-glycoprotein.
# Jurkat cells [4] = test system: Jurkat cells
# Jurkat cells [5] = assay: Cytotoxicity in Jurkat cells; details: Homo sapiens, read-out: Cytotoxicity Potency IC50
# [6] = test system: A-431 human pudendal epithelial squamous cancer cells; assay: Cell proliferation inhibiting effect, MTT (Example 5); type: cell-based; details: A-431, 48-hours incubation
# Procedure: (§1) K-562, human chronic myelogenic leukemia cells were cultured in […] culture medium (containing 10% bovine fetus serum) and A-431 human pudendal epithelial squamous cancer cells were cultured in DMEM culture medium, containing 10% bovine fetus serum. To these a continuous dilution series of the (+)-phenylahistin obtained in EXAMPLE 1 was added. After 48-hours incubation, a MTT reagent was added to measure growth.
# [7] = test system: K-562, human chronic myelogenic leukemia cells; assay: as above; type: cell-based; details: K562, K-562, 48-hours incubation
# Procedure: as §1
# [8] = test system: P388 murine leukemia cells; assay: Cytotoxic effects of the phenylahistin enantiomers (Example 8); type: cell-based; details: Mus musculus, (−) 92.2% e.e., (+) 97.8% e.e.
# Source text: The cytotoxic effects of the enantiomers of phenylahistin on P388 murine leukemia cells were examined. […] Judging from the content of (−)-phenylahistin in (+)-phenylahistin, (+)-phenylahistin was considered to have relatively low cytotoxicity to P388 cells.
# P388 cells [9] = assay: P388 proliferation, Alamar Blue assay; type: cell-based, murine; details: Mus musculus, P388
# Procedure: For this example, the Alamar Blue™ assay was performed as follows. Exponentially growing P388 cells were seeded into 96-well tissue culture plates (5×10^3 cells/100 μl/well) and cultured in RPMI 1640 medium supplemented with 10% fetal bovine serum for 16 h. Compounds (DMSO solution) were then added to each well at various concentrations, and the cells were cultured for an additional 48 h. Living cells were counted using Alamar Blue™ (BioSource International, Camarillo, Calif.), according to the method of Ahmed, S. A. et al., J. Immunol. Methods, 170, 211 (1994).
# [10] = test system: Microtubule protein from bovine brain; assay: Microtubule protein polymerization assay (turbidity); type: biochemical
# Procedure: Microtubule protein was prepared from bovine brain tissue by two cycles of assembly and disassembly according to the method of Tiwari, S. C. et al. Anal. Biochem, (1993), 215, 96-103. Tubulin was purified from microtubule protein by phosphocellulose chromatography see Algaier, J. et al. Biochim. Biophys. Acta, (1988), 954, 235-43, and tubulin purity was evaluated by polyacrylamide gel electrophoresis, as in Laemmli, U.K., Nature, (1970), […], 680-85. […] Protein concentrations were determined using the Coomassie® Protein Assay Reagent from Pierce (Rockford, Ill.).
# Polymerization of microtubule protein was monitored by an increase in turbidity at 37° C. in microtubule assembly buffer containing 100 mM MES, 0.5 mM MgCl2, 1 mM EGTA and 1 mM GTP. See Johnson, K. A. et al., J. Mol. Biol., (1977), 117, 1-31. Polymerization of purified tubulin was measured using the same method except the microtubule assembly buffer contained 4 M glycerol. See Lee, J. C. et al., Biochemistry, (1975), 14, 5183-87. Microtubule protein and tubulin polymerization was initiated by a temperature shift from 0° C. to 37° C. and turbidity was measured on a DU-20 thermocontrolled spectrophotometer from Beckman (Fullerton, Calif.) at 360 nm. Drugs were dissolved in dimethyl sulfoxide (DMSO), which was used in all experiments at a final concentration of 2% (v/v).
# For this example, the microtubule protein polymerization assay was performed as follows. Microtubule protein was prepared from bovine brain tissue by two cycles of assembly and disassembly. Polymerization of microtubule protein was monitored by an increase in turbidity at 37° C. in microtubule assembly buffer containing 100 mM MES, 0.5 mM MgCl2, 1 mM EGTA and 1 mM GTP. The polymerization of microtubule protein was initiated by a temperature shift from 0° C. to 37° C. Turbidity was measured on a thermo-controlled spectrophotometer (Beckman DU-20, Fullerton, Calif.) at 360 nm. Compounds were dissolved in DMSO, which was used in all experiments at a final concentration of 2% (v/v).
# P388 cells [11] = assay: Cell cycle progression of P388, flow cytometer; type: cell-based, murine; details: 1×10^−5 M, 8-hour incubation; 97.8% e.e.
# Procedure: The effect of phenylahistin on the cell cycle progression of P388 cells was also investigated using a flow cytometer, as described in Krishan, A., J. Cell Biol. (1975) 66, 188-193. P388 cells in the log growth phase were seeded into flasks and cultured for 14 hours, and then various concentrations of phenylahistin were added to each flask. After an 8-hour incubation, the cells were harvested and fixed with 50% MeOH at −20° C. overnight. The cells were washed with 30% MeOH and then with 10 mM PBS, and treated with 50 :g/ml propidium iodide at 4° C. for 2 hours. DNA histograms were obtained using a flow cytometer (Cyto ACE-300:JASCO).
# A-431 (damal) = assay: Antiproliferative activity, MTT assay (Table 7); type: cell-based; details: Homo sapiens, optical purity over 99.8%
# Procedure: (§2) In order to examine detailed biological activity, especially antitumor activity of both (+)- and (−)-phenylahistin, resolution of (+)- and (−)-phenylahistin using chiral HPLC was conducted. By repeating chiral separation twice or three times, each enantiomer with an optical purity over 99.8% was obtained, and each enantiomer was recrystallizes from ethanol-hexane mixture.
# (§3) Antitumor activity of (+)- and (−)-phenylahistin was examined against seven human cancer cell lines including A431, WiDr, TE-671, Hela, MCF7, A-549 and K562 cells.
# A549 (lung) = assay: Antiproliferative activity, MTT assay (Table 7); type: cell-based; details: Homo sapiens, optical purity over 99.8%
# Procedure: as §2, §3
# Hela (ovary) = assay: Antiproliferative activity, MTT assay (Table 7); type: cell-based; details: Homo sapiens, optical purity over 99.8%
# Procedure: as §2, §3
# K562 (leukemia) = assay: Antiproliferative activity, MTT assay (Table 7); type: cell-based; details: Homo sapiens, optical purity over 99.8%
# Procedure: as §2, §3
# MCF7 (breast) = assay: Antiproliferative activity, MTT assay (Table 7); type: cell-based; details: Homo sapiens, optical purity over 99.8%
# Procedure: as §2, §3
# TE-671 (CNS) = assay: Antiproliferative activity, MTT assay (Table 7); type: cell-based; details: Homo sapiens, TE-671, TE-671 (CNS), optical purity over 99.8%
# Procedure: as §2, §3
# WiDr (colon) = assay: Antiproliferative activity, MTT assay (Table 7); type: cell-based; details: Homo sapiens, optical purity over 99.8%
# Procedure: as §2, §3
# [12] = test system: seven human cancer cell lines; assay: Antiproliferative activity, MTT assay, all lines of Table 7; type: cell-based
# Procedure: as §2, §3
structure (smiles),measurement,setting,value
"O=C1c2c(O)ccc(O)c2C(=O)c2c(NCCNCCO)ccc(NCCNCCO)c21 [Mitoxantrone, reference compound]",reduced susceptibility of the MES-SA DX cell line,[1],20 fold
same,IC50,[2],0.202 µM
same,Ratio to Sensitive,[3]; HL-60 Resistant versus Sensitive,24 and 24.1
same,IC50,"[3]; Homo sapiens, HL60/MX2, HL-60 Resistant",4.87 µM
same,Cytotoxicity Efficacy % Cell Death,Jurkat cells [4],99%
same,IC50,Jurkat cells [5],0.041 µM
C=CC(C)(C)c1[nH]cnc1/C=C1\NC(=O)[C@@H](Cc2ccccc2)NC1=O [(+)-phenylahistin],IC50,[6],2.9 µg/mL
same,IC50,[7],13.3 µg/mL
same,IC50,[8],38 µM
same,IC50,"P388 cells [9]; Alamar Blue assay (Table 4), read-out: IC50 for P388 Proliferation",10 µM
same,IC50,"P388 cells [9]; means (±SEM) of three experiments (Table 9), read-out: IC50 P388 proliferation",10 µM
same,"inhibition percentage at 200 μM, microtubule protein polymerization",[10]; 200 μM,15%
same,microtubule assembly,[10]; concentrations up to 200 μM,did not affect microtubule assembly
same,IC50,"[10]; microtubule protein 1.5 mg/mL (Table 9), read-out: IC50 Microtubule Protein polymerization",> 200 µM
same,IC50,"[10]; microtubule protein 1.5 mg/ml (Table 4), read-out: IC50 for Microtubule Protein Polymerization",> 200 µM
same,cell cycle inhibitory activity (G2/M),P388 cells [11],no effect
same,IC50,A-431 (damal),20 µM
same,IC50,A549 (lung),30 µM
same,IC50,Hela (ovary),10 µM
same,IC50,K562 (leukemia),10 µM
same,IC50,MCF7 (breast),11 µM
same,IC50,TE-671 (CNS),130 µM
same,IC50,WiDr (colon),8.5 µM
same,fold less activity than (−)-PLH,[12],33 to 100 fold
